Consider one compound from PMC5719359 (Scientific Reports, 2017).

What is called IC50 is the concentration that gives 50% inhibition.

The target of this test is T1, tubulin (Sus scrofa, UniProt P02550+P02554).
T1 construct: purified porcine tubulin; with alpha-tubulin (alpha/beta heterodimer)
Briefly: fluorescence colchicine competition assay; the IC50 is from the in vitro tubulin polymerization assay. It is filed as biochemical.

The compound `COc1cc(OC)cc(N2CCN(C(=O)c3n[nH]nc3-c3ccccc3Cl)CC2)c1` [7p] gave a half-inhibitory concentration (IC50) of 2060 nM.
